In patent US6479435B1, “Diaryl ethers and processes for their preparation and herbicidal and desiccant compositions containing them” (ISK Americas Incorporated, priority 1997, dated 2002):

Tests used:
Assay type in all cases: in vivo
[1] = test system: redroot pigweed (Amaranthus retroflexus, AMARE); experiment: Post-emerge greenhouse herbicide test, phytotoxicity rating; conditions: Amaranthus retroflexus, post-emergence, 336 h, 14 days after application, scale 0-100; for pest or weed control at 63 g/ha: rate 63 g ai/ha; for pest or weed control at 500 g/ha: rate 500 g ai/ha
How it was run: (§1)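 Plants at the 2-3 leaf stage, sown 8-21 days earlier, were track-sprayed post-emergence with compound in acetone plus 0.25% v/v non-ionic surfactant at 63-1000 g ai/ha (187 l/ha). Damage was rated at 14 days on a 0-100 scale (0 none, 100 all plants dead), for both crop injury and weed control.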

[2] = test system: green foxtail (Setaria viridis, SETVI); experiment: as above; conditions: Setaria viridis, post-emergence, 336 h, 14 days after application, scale 0-100; for pest or weed control at 63 g/ha: rate 63 g ai/ha; for pest or weed control at 500 g/ha: rate 500 g ai/ha
How it was run: as §1

[3] = test system: ivyleaf morningglory (Ipomoea hederacea, IPOHE); experiment: as above; conditions: Ipomoea, post-emergence, 336 h, 14 days after application, scale 0-100; for pest or weed control at 63 g/ha: rate 63 g ai/ha; for pest or weed control at 500 g/ha: rate 500 g ai/ha
How it was run: as §1

[4] = test system: velvetleaf (Abutilon theophrasti, ABUTH); experiment: as above; conditions: Abutilon theophrasti, post-emergence, 336 h, 14 days after application, scale 0-100; for pest or weed control at 63 g/ha: rate 63 g ai/ha; for pest or weed control at 500 g/ha: rate 500 g ai/ha
How it was run: as §1

[5] = test system: lambsquarters (Chenopodium album, CHEAL); experiment: as above; conditions: Chenopodium album, post-emergence, 336 h, 14 days after application, scale 0-100; for pest or weed control at 63 g/ha: rate 63 g ai/ha; for pest or weed control at 500 g/ha: rate 500 g ai/ha
How it was run: as §1

[6] = test system: large crabgrass (Digitaria sanguinalis, DIGSA); experiment: as above; conditions: Digitaria sanguinalis, post-emergence, 336 h, 14 days after application, scale 0-100; for pest or weed control at 63 g/ha: rate 63 g ai/ha; for pest or weed control at 500 g/ha: rate 500 g ai/ha
How it was run: as §1

[7] = test system: sicklepod (Cassia obtusifolia, CASOB); experiment: as above; conditions: Senna obtusifolia, post-emergence, 336 h, 14 days after application, scale 0-100; for pest or weed control at 63 g/ha: rate 63 g ai/ha; for pest or weed control at 500 g/ha: rate 500 g ai/ha
How it was run: as §1

[8] = test system: barnyardgrass (Echinochloa crusgalli, ECHCG); experiment: as above; conditions: Echinochloa crus-galli, post-emergence, 336 h, 14 days after application, scale 0-100; for pest or weed control at 63 g/ha: rate 63 g ai/ha; for pest or weed control at 500 g/ha: rate 500 g ai/ha
How it was run: as §1

[9] = test system: Johnsongrass (Sorghum halepense, SORHA); experiment: as above; conditions: Sorghum halepense, post-emergence, 336 h, 14 days after application, scale 0-100; for pest or weed control at 63 g/ha: rate 63 g ai/ha; for pest or weed control at 500 g/ha: rate 500 g ai/ha
How it was run: as §1

[10] = test system: redroot pigweed (Amaranthus retroflexus, AMARE); experiment: Pre-emerge greenhouse herbicide test, phytotoxicity rating; conditions: Amaranthus retroflexus, pre-emergence, 336 h, 14 days after application, rating scale 0-100; for pest or weed control at 125 g/ha: Rate 125 g al/ha; for pest or weed control at 500 g/ha: Rate 500 g al/ha
How it was run: (§2)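 Seeds sown in sandy loam one day before track-sprayer application of acetone solutions at 125–1000 g ai/ha (187 l/ha), then surface-watered to incorporate and bottom-watered. Injury scored visually at 14 days on a 0–100 scale (0 no damage, 100 complete death).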

[11] = test system: ivyleaf morningglory (Ipomoea hederacea, IPOHE); experiment: as above; conditions: Ipomoea, pre-emergence, 336 h, 14 days after application, rating scale 0-100; for pest or weed control at 125 g/ha: Rate 125 g al/ha; for pest or weed control at 500 g/ha: Rate 500 g al/ha
How it was run: as §2

[12] = test system: velvetleaf (Abutilon theophrasti, ABUTH); experiment: as above; conditions: Abutilon theophrasti, pre-emergence, 336 h, 14 days after application, rating scale 0-100; for pest or weed control at 125 g/ha: Rate 125 g al/ha; for pest or weed control at 500 g/ha: Rate 500 g al/ha
How it was run: as §2

[13] = test system: lambsquarters (Chenopodium album, CHEAL); experiment: as above; conditions: Chenopodium album, pre-emergence, 336 h, 14 days after application, rating scale 0-100; for pest or weed control at 125 g/ha: Rate 125 g al/ha; for pest or weed control at 500 g/ha: Rate 500 g al/ha
How it was run: as §2

[14] = test system: large crabgrass (Digitaria sanguinalis, DIGSA); experiment: as above; conditions: Digitaria sanguinalis, pre-emergence, 336 h, 14 days after application, rating scale 0-100; for pest or weed control at 125 g/ha: Rate 125 g al/ha; for pest or weed control at 500 g/ha: Rate 500 g al/ha
How it was run: as §2

[15] = test system: sicklepod (Cassia obtusifolia, CASOB); experiment: as above; conditions: Senna obtusifolia, pre-emergence, 336 h, 14 days after application, rating scale 0-100; for pest or weed control at 125 g/ha: Rate 125 g al/ha; for pest or weed control at 500 g/ha: Rate 500 g al/ha
How it was run: as §2

| Structure (SMILES) | pest or weed control at 63 g/ha [1] | pest or weed control at 500 g/ha [1] | pest or weed control at 63 g/ha [2] | pest or weed control at 500 g/ha [2] | pest or weed control at 63 g/ha [3] | pest or weed control at 500 g/ha [3] | pest or weed control at 63 g/ha [4] | pest or weed control at 500 g/ha [4] | pest or weed control at 63 g/ha [5] | pest or weed control at 500 g/ha [5] | pest or weed control at 63 g/ha [6] | pest or weed control at 500 g/ha [6] | pest or weed control at 63 g/ha [7] | pest or weed control at 500 g/ha [7] | pest or weed control at 63 g/ha [8] | pest or weed control at 500 g/ha [8] | pest or weed control at 63 g/ha [9] | pest or weed control at 500 g/ha [9] | pest or weed control at 125 g/ha [10] | pest or weed control at 500 g/ha [10] | further results |
| --- | --- | --- | --- | --- | --- | --- | --- | --- | --- | --- | --- | --- | --- | --- | --- | --- | --- | --- | --- | --- | --- |
| O=c1n(-c2cc(Oc3ncccc3C(F)(F)F)c(Cl)cc2F)c(=S)n2n1CCCC2 [Compound 8-18, 2-[4-chloro-2-fluoro-5-(3-trifluoromethyl-2pyridyloxy)phenyl]hexahydro-3-thioxo-1H-[1,2,4]triazolo[1,2-a]pyridazin-1-one] | 100% | 100% | 40% | 70% | 100% | 100% | 100% | 100% | 100% | 100% | 0% | 10% | 70% | 100% | 70% | 70% | 50% | 90% | 100% | 100% | pest or weed control at 125 g/ha [11]: 20%; pest or weed control at 500 g/ha [11]: 45%; pest or weed control at 125 g/ha [12]: 100%; pest or weed control at 500 g/ha [12]: 100%; pest or weed control at 125 g/ha [13]: 100%; pest or weed control at 500 g/ha [13]: 100%; pest or weed control at 125 g/ha [14]: 50%; pest or weed control at 500 g/ha [14]: 100%; pest or weed control at 125 g/ha [15]: 20%; pest or weed control at 500 g/ha [15]: 40% |
| O=c1n(-c2cc(Oc3ncccn3)c(Cl)cc2F)c(=S)n2n1CCCC2 [Compound 8-29, 2-[4-chloro-2-fluoro-5-(2-pyrimidyloxy)phenyl]hexahydro-3-thioxo-1H-[1,2,4]triazolo[1,2-a]pyridazin-1-one] | 100% | 100% | 90% | 100% | 100% | 100% | 100% | 100% | 100% | 100% | 50% | 100% | 100% | 100% | 80% | 100% | 90% | 100% | 100% | 100% | pest or weed control at 125 g/ha [11]: 100%; pest or weed control at 500 g/ha [11]: 100%; pest or weed control at 125 g/ha [12]: 100%; pest or weed control at 500 g/ha [12]: 100%; pest or weed control at 125 g/ha [13]: 100%; pest or weed control at 500 g/ha [13]: 100%; pest or weed control at 125 g/ha [14]: 100%; pest or weed control at 500 g/ha [14]: 100%; pest or weed control at 125 g/ha [15]: 100%; pest or weed control at 500 g/ha [15]: 100% |
| Nn1c(C(F)(F)F)cc(=O)n(-c2cc(Oc3ncccc3[N+](=O)[O-])c(Cl)cc2F)c1=O [Compound 9-1, 1-amino-3-[4-chloro-2-fluoro-5-(3-nitro-2-pyridyloxy)phenyl]-6-trifluoromethyl-1,2,3,4-tetrahydropyrimidine-2,4-dione] | 100% | 100% | 20% | 90% | 100% | 100% | 100% | 100% | 95% | 100% | 20% | 50% | 30% | 30% | 30% | 100% | 70% | 99% | 100% | 100% | pest or weed control at 125 g/ha [11]: 100%; pest or weed control at 500 g/ha [11]: 100%; pest or weed control at 125 g/ha [12]: 100%; pest or weed control at 500 g/ha [12]: 100%; pest or weed control at 125 g/ha [13]: 100%; pest or weed control at 500 g/ha [13]: 100%; pest or weed control at 125 g/ha [14]: 40%; pest or weed control at 500 g/ha [14]: 100%; pest or weed control at 125 g/ha [15]: 30%; pest or weed control at 500 g/ha [15]: 90% |
| Nn1c(C(F)(F)F)cc(=O)n(-c2cc(Oc3ccc(Br)cn3)c(Cl)cc2F)c1=O [Compound 9-2, 1-Amino-3-[4-chloro-2-fluoro-5-(5-bromo-2-pyridyloxy)phenyl]-6-trifluoromethyl-1,2,3,4-tetrahydropyrimidine-2,4-dione] | 100% | 100% | 10% | 60% | 100% | 80% | 100% | 100% | 100% | 95% | 0% | 30% | 30% | 95% | 10% | 80% | 10% | 70% | 80% | 100% | pest or weed control at 125 g/ha [11]: 0%; pest or weed control at 500 g/ha [11]: 100%; pest or weed control at 125 g/ha [12]: 30%; pest or weed control at 500 g/ha [12]: 100%; pest or weed control at 125 g/ha [13]: 100%; pest or weed control at 500 g/ha [13]: 100%; pest or weed control at 125 g/ha [14]: 95%; pest or weed control at 500 g/ha [14]: 100%; pest or weed control at 125 g/ha [15]: 0%; pest or weed control at 500 g/ha [15]: 50% |
